Tests used:
[1] = xn = mol fraction of the nth substance listed; details: 101 kPa, Liquid; for speed of sound: Sing-around technique in a fixed-path interferometer
[2] = refractive index (Na D-line) (dimensionless); xn = mol fraction of the nth substance listed; details: 101 kPa, Liquid

CCCCC(CC)CO (stereo not given) [2-ethyl-1-hexanol] + Clc1ccccc1
Details	mass density, [1] [kg/m3]	refractive index, [2]	speed of sound, [1] [m/s]	viscosity, [1] [mPa·s]
298.15 K, x2 = 0	829.07	1.4287	1319	8.418
298.15 K, x2 = 0.0779	838.66	1.435	1313	6.736
298.15 K, x2 = 0.1381	847.37	1.44	1308	5.641
298.15 K, x2 = 0.1974	857.02	1.4453	1304	4.684
298.15 K, x2 = 0.2716	870.89	1.4523	1298	3.718
298.15 K, x2 = 0.3399	885.34	1.4591	1292	2.996
298.15 K, x2 = 0.4119	902.38	1.4666	1287	2.38
298.15 K, x2 = 0.4766	919.17	1.4734	1282	1.969
298.15 K, x2 = 0.5461	938.46	1.4807	1277	1.628
298.15 K, x2 = 0.6124	958.72	1.4879	1272	1.381
298.15 K, x2 = 0.6892	983.65	1.4961	1268	1.197
298.15 K, x2 = 0.758	1007.82	1.5034	1265	1.06
298.15 K, x2 = 0.8189	1029.88	1.5095	1264	0.969
298.15 K, x2 = 0.8888	1056.63	1.5161	1263	0.893
298.15 K, x2 = 0.9533	1081.91	1.521	1265	0.821
303.15 K, x2 = 0	825.39	1.4266	1301	7.144
303.15 K, x2 = 0.0779	834.41	1.4332	1295	5.817
303.15 K, x2 = 0.1381	842.5	1.4382	1291	4.906
303.15 K, x2 = 0.1974	852.03	1.4437	1286	4.121
303.15 K, x2 = 0.2716	865.78	1.4509	1280	3.268
303.15 K, x2 = 0.3399	880.07	1.4577	1275	2.671
303.15 K, x2 = 0.4119	897.12	1.4651	1269	2.147
303.15 K, x2 = 0.4766	914.02	1.472	1264	1.785
303.15 K, x2 = 0.5461	933.51	1.4793	1259	1.455
303.15 K, x2 = 0.6124	953.51	1.4863	1254	1.253
303.15 K, x2 = 0.6892	978.28	1.4943	1250	1.057
303.15 K, x2 = 0.758	1002.29	1.5015	1247	0.968
303.15 K, x2 = 0.8189	1024.42	1.5076	1246	0.881
303.15 K, x2 = 0.8888	1050.99	1.514	1245	0.81
303.15 K, x2 = 0.9533	1076.27	1.5186	1247	0.764
308.15 K, x2 = 0	821.68	1.4245	1283	6.09
308.15 K, x2 = 0.0779	829.62	1.4308	1277	4.854
308.15 K, x2 = 0.1381	837.63	1.4362	1273	4.032
308.15 K, x2 = 0.1974	846.84	1.4416	1268	3.363
308.15 K, x2 = 0.2716	860.76	1.4491	1263	2.689
308.15 K, x2 = 0.3399	875.1	1.4561	1257	2.171
308.15 K, x2 = 0.4119	892.15	1.4637	1252	1.749
308.15 K, x2 = 0.4766	908.93	1.4706	1247	1.45
308.15 K, x2 = 0.5461	928.26	1.4778	1242	1.221
308.15 K, x2 = 0.6124	948.46	1.4849	1237	1.068
308.15 K, x2 = 0.6892	973.49	1.4929	1233	0.96
308.15 K, x2 = 0.758	996.87	1.4998	1230	0.879
308.15 K, x2 = 0.8189	1018.95	1.5056	1228	0.824
308.15 K, x2 = 0.8888	1045.23	1.5116	1228	0.774
308.15 K, x2 = 0.9533	1070.96	1.5161	1229	0.719
